Reference: patent US11744853B2, “Method of administration and treatment” (Dyve Biosciences, Inc., priority 2017, dated 2023)

Legend:
MCF-7 cells = assay: Doxorubicin uptake and cytotoxicity in MCF-7 cells at medium pH 6.8 or 7.4 (Example 9); assay type: cell-based
Experimental: Medium pH was buffered using non-volatile buffers (10 mM MES, 20 mM HEPES and 10 mM TRICINE) in combination with bicarbonate concentrations that were adjusted to be in equilibrium with 5% ambient carbon dioxide. Twenty-four hours later, regular growth medium was replaced and cells allowed to grow a subsequent 72 h, after which time they were fixed and stained with crystal violet for determination of cell number.

MCF-7 tumors = assay: MCF-7 tumor growth in SCID mice, doxorubicin with oral or topical bicarbonate (Example 9); assay type: in vivo; conditions: B doxorubicin 1.6 mg/kg i.p. days 3, 7, 11; C oral 200 mM bicarbonate; D oral bicarbonate + doxorubicin; E topical formulation 150 μL/day; F topical + doxorubicin
Text: The start of the bicarbonate treatment was designated as day 1. […] On day 15, animals in Groups C and D were placed back on normal drinking water and animals in Groups E and F ceased received t.i.d. topical applications.
Tumor volumes and animal weights were monitored every 2 days.

Substance: doxorubicin
- increase in intracellular doxorubicin concentrations on raising the pHe from 6.8 to 7.4 (MCF-7 cells; 14C doxorubicin): 2.56 fold
- enhancement of cytotoxicity on raising the pHe from 6.8 to 7.4 (MCF-7 cells; 24 h exposure, crystal violet after a subsequent 72 h): 2.25 fold
- reduction in tumor growth rate (MCF-7 tumors): ~30%
